Source: US8470805B2, “Processes for preparing piperazinium salts of KMUP and use thereof” (Kaohsiung Medical University, priority 2009, dated 2013)
pIC50: −log10 of the molar value.

Key:
[1] = system: H1N1 virus; type: cell-based; details: MDCK culture infected with H1N1 virus
[2] = system: L1210 leukemia cell line; test: Cytotoxicity to cancer cells, MTT assay; type: cell-based; details: 3 days, n=6
Protocol: The methotrexate (MTX) is served as the positive control group. Briefly, the cancer cells (5000-10000 cells/ml) is added together with the compounds to be tested into each well of 96-well plate. After culturing for 3 days, the attached cells are cultured in MTT (0.5 mg/ml) for one hour, followed by dissolving the formazan crystal with dimethyl sulfoxide (DMSO). The absorption at 550 nm wave length is measured by the enzyme linked immunosorbent assay (ELISA) reader. IC50 is the concentration of the tested compound for inhibiting 50% cell growth under the experimental conditions.

[3] = system: testosterone-induced mice; test: Prostate hypertrophy (BPH) in testosterone-induced mice; type: in vivo; details: 2.5 mg/kg, testosterone 3 mg/kg/day for 4 weeks, day 28, n=6
Protocol: The testosterone (TS, 3 mg/kg/day) is administered for 4 weeks for inducing BPH in mice, which combines with KMUP-1 HCl salt (2.5 mg/kg), KMUP-1-Citric acid (2.5 mg/kg) and KMUP-1-Nicotinic acid (2.5 mg/kg), and the ratio of hypertrophy (g)/body weight (g) is measured at day 28 (n=6).

[4] = system: TGF-β; test: Bleomycin-induced lung fibrosis in mice, TGF-β expression by EIA; type: in vivo; details: 2.5 mg/kg orally, bleomycin 60 mg/kg
Protocol: 6. KMUP-1 salts inhibit the lung fibrosis in mice induced by bleomycin (BM) mediated via transforming growth factor beta (TGF-β) expression in lung The increased amount of the synthetic collagen and the generation of the macrophage in alveolus may facilitate the formulation of TGF-β, and the expression of TGF-β is looked as a biomarker of the lung fibrosis. […] The state of the TGF-β expression in the irrigation solution is measured by the enzyme immunoassay (EIA).

[5] = system: monocrotaline (MCT)-treated rats; test: Pulmonary artery blood pressure in monocrotaline (MCT)-treated rats; type: in vivo, male Wistar rats; details: 2.5 mg/kg/day p.o.
Protocol: 5. the monocrotaline (MCT)-treated rats show the […] pulmonary aterial hypertension
Pulmonary aterial hypertension in MCT-treated rats is caused on day 21 after the intraperitoneal injection. Orally administered KMUP-1 HCl salt (2.5 mg/kg), simvastatin (2.5 mg/kg), KMUP-1-nicotinic acid complex (2.5 mg/kg), KMUP-1-Citric acid complex (2.5 mg/kg), KMUP-1-Simvastatinic acid complex (2.5 mg/kg) and KMUP-1-γ-Polyglutamic acid complex (2.5 mg/kg), or the inhalated KMUP-1-PGI2 (0.1 mM) every day may inhibit the male Wistar rats treated with MCT, which show the effect of decreasing the pulmonary artery blood pressure (PABP).

[6] = system: RAW 264.7 cells; test: Inhibition of RANKL-induced osteoclast differentiation (TRAP staining); type: cell-based; details: 5 μM, RANKL 10 μg/ml, 5 days, n=5
[7] = system: U46619-induced platelet aggregation; test: Antiplatelet aggregation activity (U46619-induced, turbidity, Lumi-aggregometer); type: cell-based; details: 20 μM, rabbit platelets, n=8
Protocol: 4. […] After centrifuging at […] for 10 mins, the supernatant is platelet-rich plasma (PRP). The platelet suspension is obtained from EDTA-anticoagulated PRP, and the platelet granules are finally suspended in the Tyrode's solution. […] The turbidity is measured at 37° C. by Lumi-aggregometer connected with two dual channel recorders as the aggregation.

[8] = system: C57BL/6J mice; test: The amount of the serum glucose and insulin in C57BL/6J mice (high-fat diet); type: in vivo; details: 1 mg/kg orally, HFD, after 21 days
Protocol: (§1) 8-week C57BL/6J mice are divided into standard diet (STD) group and the high-fat diet (HFD) group. In the HFD group, the KMUP-1 HCl salt (1, 2.5 and 5 mg/kg), the simvastatin (5 mg/kg), the KMUP-1-Nicotinic acid complex (1 and 5 mg/kg), the KMUP-1-Simvastatinic acid complex (1 and 5 mg/kg), KMUP-1-Gemfibrozil complex (2.5 mg/kg), KMUP-1-Fibric acid complex (2.5 mg/kg), KMUP-1-γ-polyglutamic acid complex (2.5 mg/kg) and KMUP-1-Citric acid complex (2.5 mg/kg) are administered orally. After 21 days, the amounts (mg/dl) of the triglyceride (TG), the total cholesterol (tot.-C), the high density lipoprotein cholesterol (HDL-C), the low density lipoprotein cholesterol (LDL-C) and the serum glucose of six mice for each group are measured as shown in Tables 2 and 3.

[9] = system: STZ-induced diabetic rats; test: Serum glucose and body weight in streptozosin (STZ)-induced diabetic rats; type: in vivo; details: after 21 days
Protocol: 2. The effect of KMUP-1 on decreasing the amount of the serum glucose in streptozosin (STZ)-induced diabetic rats
60 mg/kg of streptozosin is injected intravenously for inducing the STZ-induced rats, and the KMUP-1 HCl salt (0.5, 1.5, 2.5 and 5 mg/kg) and KMUP-1-Simvastatinic acid (5 mg/kg) are administered orally. After 21 days, the amount of the serum glucose (mg/dl), the amount of the serum insulin (mg/dl), the body weight (g) and the change of the body weight are measured.

[10] = system: STZ-induced diabetic rats; test: Change of insulin and fasting blood glucose after administration, STZ-induced diabetic rats; type: in vivo
Protocol: Nateglinide, repaglinide or the placebo is administered on day 1 before one hour of the breakfast, and the KMUP-1/KMUP-1-Nateglinide or KMUP-1-Repaglinide are orally administered at 1, 2, 3, 4, 5 and 6 hrs respectively. The amount of the serum glucose (mg/dl), the amount of the serum insulin (mg/dl), the body weight (g) and the change of the body weight are measured.

[11] = system: C57BL/6J mice; test: The lipid-lowering effect in C57BL/6J mice (high-fat diet); type: in vivo; details: HFD, after 21 days
Protocol: as §1

## Cl.Cn1c(=O)c2c(ncn2CCN2CCN(c3ccccc3Cl)CC2)n(C)c1=O [KMUP-1 HCl salt, 7-[2-[4-(2-chlorobenzene)piperazinyl]ethyl]-1,3-dimethyl xanthine HCl]
[1]; in glucose solution
  growth of the virus (in words): can inhibit the growth of the virus
[1]; n=6
  IC50: 5.2 µg/mL
[2]
  pIC50: 7.59
[3]
  hypertrophy (g)/body weight (g): 0.21 ± 0.04
[4]
  Changing % of the lung TGF-β: 52 ± 5.2 %
[5]
  PABP: 13 ± 1.7 mmHg
[6]
  TRAP-Positive Cells: 80 ± 6
[7]
  The ratio of the antiplatelet aggregation: 89 ± 3.4 %
[8]
  The amount of serum glucose: 120.4 ± 4.2 mg/dL
[9]; 0.5 mg/kg orally
  The amount of the serum glucose: 215.4 ± 19.6 mg/dL
[9]; 1.5 mg/kg orally
  The amount of the serum glucose: 215.4 ± 23.8 mg/dL
[9]; 2.5 mg/kg orally
  The amount of the serum glucose: 210.4 ± 15.7 mg/dL
[9]; 5 mg/kg orally
  The amount of the serum glucose: 200.2 ± 14.2 mg/dL
[10]; 1 mg/kg, 1 hr
  The change of the fasting blood glucose after administration: 3.7 ± 0.6 mg/dL
  The change of the insulin after administration: 10.1 ± 1.8 U/mL
[10]; 1 mg/kg, 2 hr
  The change of the fasting blood glucose after administration: 2.3 ± 0.7 mg/dL
  The change of the insulin after administration: 16.4 ± 2.2 U/mL
[10]; 1 mg/kg, 3 hr
  The change of the insulin after administration: 12.6 ± 2.4 U/mL
[10]; 1 mg/kg, 4 hr
  The change of the insulin after administration: 6.7 ± 2.4 U/mL
[10]; 1 mg/kg, 6 hr
  The change of the fasting blood glucose after administration: 0.1 ± 0.5 mg/dL
  The change of the insulin after administration: 1.8 ± 0.7 U/mL
[10]; 2 mg/kg, 1 hr
  The change of the fasting blood glucose after administration: 4.3 ± 0.4 mg/dL
  The change of the insulin after administration: 26.4 ± 1.3 U/mL
[10]; 2 mg/kg, 2 hr
  The change of the fasting blood glucose after administration: 2.5 ± 0.2 mg/dL
  The change of the insulin after administration: 30.6 ± 4.6 U/mL
[10]; 2 mg/kg, 3 hr
  The change of the insulin after administration: 13.8 ± 3.6 U/mL
[10]; 2 mg/kg, 4 hr
  The change of the insulin after administration: 9.5 ± 1.7 U/mL
[10]; 2 mg/kg, 6 hr
  The change of the fasting blood glucose after administration: 0.3 ± 0.7 mg/dL
  The change of the insulin after administration: 4.6 ± 0.8 U/mL
[10]; 3 mg/kg, 1 hr
  The change of the fasting blood glucose after administration: 5.2 ± 0.9 mg/dL
  The change of the insulin after administration: 38.2 ± 3.8 U/mL
[10]; 3 mg/kg, 2 hr
  The change of the fasting blood glucose after administration: 1.7 ± 0.1 mg/dL
  The change of the insulin after administration: 32.6 ± 6.4 U/mL
[10]; 3 mg/kg, 3 hr
  The change of the insulin after administration: 21.4 ± 2.6 U/mL
[10]; 3 mg/kg, 4 hr
  The change of the insulin after administration: 18.4 ± 2.4 U/mL
[10]; 3 mg/kg, 6 hr
  The change of the fasting blood glucose after administration: -0.1 ± 0.3 mg/dL
  The change of the insulin after administration: 7.4 ± 3.6 U/mL
[10]; 4 mg/kg, 1 hr
  The change of the fasting blood glucose after administration: 5.7 ± 0.8 mg/dL
  The change of the insulin after administration: 37.4 ± 3.6 U/mL
[10]; 4 mg/kg, 2 hr
  The change of the fasting blood glucose after administration: 1.5 ± 0.2 mg/dL
  The change of the insulin after administration: 47.3 ± 2.3 U/mL
[10]; 4 mg/kg, 3 hr
  The change of the insulin after administration: 27.8 ± 2.8 U/mL
[10]; 4 mg/kg, 4 hr
  The change of the insulin after administration: 14.8 ± 3.7 U/mL
[10]; 4 mg/kg, 6 hr
  The change of the fasting blood glucose after administration: -0.3 ± 0.1 mg/dL
  The change of the insulin after administration: 2.8 ± 0.5 U/mL
[11]; 2.5 mg/kg orally
  HDL-C: 103.55 ± 4.2 mg/dL
  LDL-C: 14.17 ± 1.4 mg/dL
  TG: 74.5 ± 5.1 mg/dL
  tot.-C: 133 ± 5.1 mg/dL
[11]; 5 mg/kg orally
  HDL-C: 118.32 ± 5.7 mg/dL
  LDL-C: 14.2 ± 2.2 mg/dL
  TG: 72.67 ± 4.7 mg/dL
  tot.-C: 125.5 ± 9.8 mg/dL
